The results in this text go back to PubChem BioAssay AID1259407 (Chemical Carcinogenesis Research Information System (CCRIS), 2018).

Calls of active or inactive are those of the source. The rule behind the calls is not given here.

For this data set, the system named is CCRIS mutagenicity, Ames/micronucleus/aberration tests. Description: CCRIS mutagenicity studies.
[1] abbreviates: Test System: AMES SALMONELLA TYPHIMURIUM, Strain/Indicator: TA98, Metabolic Activation: NONE, Method: STANDARD PLATE.
Setting [2] is: Test System: AMES SALMONELLA TYPHIMURIUM, Strain/Indicator: TA98, Metabolic Activation: RAT, LIVER, S-9, AROCLOR 1254, Method: STANDARD PLATE.
The mark [3] stands for this setting: Test System: AMES SALMONELLA TYPHIMURIUM, Strain/Indicator: TA100, Metabolic Activation: NONE, Method: STANDARD PLATE.
Where [4] appears, read: Test System: AMES SALMONELLA TYPHIMURIUM, Strain/Indicator: TA100, Metabolic Activation: RAT, LIVER, S-9, AROCLOR 1254, Method: STANDARD PLATE.
The mark [5] stands for this setting: Test System: AMES SALMONELLA TYPHIMURIUM, Strain/Indicator: TA1535, Metabolic Activation: NONE, Method: STANDARD PLATE.
[6] abbreviates: Test System: AMES SALMONELLA TYPHIMURIUM, Strain/Indicator: TA1535, Metabolic Activation: RAT, LIVER, S-9, AROCLOR 1254, Method: STANDARD PLATE.
Where [7] appears, read: Test System: AMES SALMONELLA TYPHIMURIUM, Strain/Indicator: TA1537, Metabolic Activation: NONE, Method: STANDARD PLATE.
[8] abbreviates: Test System: AMES SALMONELLA TYPHIMURIUM, Strain/Indicator: TA1537, Metabolic Activation: RAT, LIVER, S-9, AROCLOR 1254, Method: STANDARD PLATE.
The mark [9] stands for this setting: Test System: AMES SALMONELLA TYPHIMURIUM, Strain/Indicator: TA1538, Metabolic Activation: RAT, LIVER, S-9, AROCLOR 1254, Method: STANDARD PLATE.
[10] abbreviates: Test System: AMES SALMONELLA TYPHIMURIUM, Strain/Indicator: TA1538, Metabolic Activation: NONE, Method: STANDARD PLATE.

Regarding `C=Cc1ccc(O)c(OC)c1`, the mutagenic call reads like this: (Test System: AMES SALMONELLA TYPHIMURIUM, Strain/Indicator: TA98, Metabolic Activation: HAMSTER, LIVER, S-9, AROCLOR 1254, Method: STANDARD PLATE) “inactive; negative”; under setting [1], “inactive; negative”; under setting [2], “inactive; negative”; (Test System: AMES SALMONELLA TYPHIMURIUM, Strain/Indicator: TA100, Metabolic Activation: HAMSTER, LIVER, S-9, AROCLOR 1254, Method: STANDARD PLATE) “inactive; negative”; under setting [3], “inactive; negative”; under setting [4], “inactive; negative”. The mutagenic call runs as follows: (Test System: AMES SALMONELLA TYPHIMURIUM, Strain/Indicator: TA1535, Metabolic Activation: HAMSTER, LIVER, S-9, AROCLOR 1254, Method: STANDARD PLATE) “inactive; negative”; under setting [5], “inactive; negative”; under setting [6], “inactive; negative”; (Test System: AMES SALMONELLA TYPHIMURIUM, Strain/Indicator: TA1537, Metabolic Activation: HAMSTER, LIVER, S-9, AROCLOR 1254, Method: STANDARD PLATE) “inactive; negative”; under setting [7], “inactive; negative”; under setting [8], “inactive; negative”. For the same molecule, the mutagenic call was “inactive; negative. reevaluation of results: equivocal” (Test System: MOUSE LYMPHOMA, Strain/Indicator: L5178Y (TK+/TK-), Metabolic Activation: NONE, Method: SUSPENSION/PLATE) and “inactive; negative. reevaluation of results: negative” (Test System: MOUSE LYMPHOMA, Strain/Indicator: L5178Y (TK+/TK-), Metabolic Activation: RAT, LIVER, S-9, AROCLOR 1254, Method: SUSPENSION/PLATE).
Consider `CCCCCCN=[N+]=[N-]`, for which the mutagenic call was “inactive; negative” (Test System: Ames Salmonella typhimurium, Strain/Indicator: TA100, Metabolic Activation: None, Method: Preincubation) and “active; positive” (Test System: Ames Salmonella typhimurium, Strain/Indicator: TA100, Metabolic Activation: Rat, Liver, S-9, Aroclor 1254, Method: Preincubation).
For the molecule `CC(=O)Nc1ccc2c(c1)Cc1cccc(O)c1-2`, the mutagenic call by setting is: under setting [2], “active; positive”; under setting [4], “active; positive”; under setting [9], “active; positive”.
Turning to `C[C@]12CC[C@@H]3c4ccc(O)cc4CC[C@H]3[C@@]13CC[C@]2(O)[C@H](O)C3`, the mutagenic call by setting is: (End Point: IN VITRO CHROMOSOMAL ABERRATIONS, Test System: HUMAN PERIPHERAL LYMPHOCYTES, Metabolic Activation: NONE) “inactive; negative”; (End Point: IN VITRO CHROMOSOMAL ABERRATIONS, Test System: HUMAN PERIPHERAL LYMPHOCYTES, Metabolic Activation: RAT, LIVER, S-9, AROCLOR 1254) “inactive; negative”; (Test System: AMES SALMONELLA TYPHIMURIUM, Strain/Indicator: TA98, Metabolic Activation: NONE, Method: PREINCUBATION) “inactive; negative”; under setting [1], “inactive; negative”; (Test System: AMES SALMONELLA TYPHIMURIUM, Strain/Indicator: TA98, Metabolic Activation: RAT, LIVER, S-9, AROCLOR 1254, Method: PREINCUBATION) “inactive; negative”; under setting [2], “inactive; negative”. Also, the mutagenic call is, setting by setting: (Test System: AMES SALMONELLA TYPHIMURIUM, Strain/Indicator: TA100, Metabolic Activation: NONE, Method: PREINCUBATION) “inactive; negative”; under setting [3], “inactive; negative”; (Test System: AMES SALMONELLA TYPHIMURIUM, Strain/Indicator: TA100, Metabolic Activation: RAT, LIVER, S-9, AROCLOR 1254, Method: PREINCUBATION) “inactive; negative”; under setting [4], “inactive; negative”; (Test System: AMES SALMONELLA TYPHIMURIUM, Strain/Indicator: TA1535, Metabolic Activation: NONE, Method: PREINCUBATION) “inactive; negative”; under setting [5], “inactive; negative”. The mutagenic call is “inactive; negative” (Test System: AMES SALMONELLA TYPHIMURIUM, Strain/Indicator: TA1535, Metabolic Activation: RAT, LIVER, S-9, AROCLOR 1254, Method: PREINCUBATION); “inactive; negative” under setting [6]; “inactive; negative” (Test System: AMES SALMONELLA TYPHIMURIUM, Strain/Indicator: TA1537, Metabolic Activation: NONE, Method: PREINCUBATION); “inactive; negative” under setting [7]; “inactive; negative” (Test System: AMES SALMONELLA TYPHIMURIUM, Strain/Indicator: TA1537, Metabolic Activation: RAT, LIVER, S-9, AROCLOR 1254, Method: PREINCUBATION); “inactive; negative” under setting [8]. Further, the mutagenic call runs as follows: (Test System: AMES SALMONELLA TYPHIMURIUM, Strain/Indicator: TA1538, Metabolic Activation: NONE, Method: PREINCUBATION) “inactive; negative”; under setting [10], “inactive; negative”; (Test System: AMES SALMONELLA TYPHIMURIUM, Strain/Indicator: TA1538, Metabolic Activation: RAT, LIVER, S-9, AROCLOR 1254, Method: PREINCUBATION) “inactive; negative”; under setting [9], “inactive; negative”; (Test System: CHINESE HAMSTER V-79, Strain/Indicator: V-79 (HGPRT)/6-THIOGUANINE, Metabolic Activation: NONE) “inactive; negative”; (Test System: CHINESE HAMSTER V-79, Strain/Indicator: V-79 (HGPRT)/6-THIOGUANINE, Metabolic Activation: RAT, LIVER, S-9, AROCLOR 1254) “inactive; negative”.
`Cc1cccc2c1C(C)c1ccccc1-2` (stereo not given): the mutagenic call runs as follows: under setting [2], “active; positive”; under setting [4], “active; positive”.
For the molecule `CCN(CC)c1cc(NC(C)=O)c(N=Nc2c(Br)cc([N+](=O)[O-])cc2[N+](=O)[O-])cc1OC`, the mutagenic call under setting [1] is “active; positive”; the mutagenic call under setting [2] is “active; positive”; the mutagenic call (Test System: AMES SALMONELLA TYPHIMURIUM, Strain/Indicator: TA98DNP6, Metabolic Activation: NONE, Method: STANDARD PLATE) is “inactive; negative”; the mutagenic call (Test System: AMES SALMONELLA TYPHIMURIUM, Strain/Indicator: TA98DNP6, Metabolic Activation: RAT, LIVER, S-9, AROCLOR 1254, Method: STANDARD PLATE) was “active; positive”; the mutagenic call (Test System: AMES SALMONELLA TYPHIMURIUM, Strain/Indicator: TA98NR, Metabolic Activation: NONE, Method: STANDARD PLATE) was “inactive; negative”; the mutagenic call (Test System: AMES SALMONELLA TYPHIMURIUM, Strain/Indicator: TA98NR, Metabolic Activation: RAT, LIVER, S-9, AROCLOR 1254, Method: STANDARD PLATE) is “active; positive”. The mutagenic call under setting [3] is “active; positive”; the mutagenic call under setting [4] is “active; positive”; the mutagenic call under setting [5] is “inactive; negative”; the mutagenic call under setting [6] was “inactive; negative”; the mutagenic call under setting [7] was “active; positive”; the mutagenic call under setting [8] was “active; positive”. Moreover, the mutagenic call is “active; positive” under setting [10]; “active; positive” under setting [9]; “active; positive” (Test System: AMES SALMONELLA TYPHIMURIUM, Strain/Indicator: YG1021, Metabolic Activation: NONE, Method: STANDARD PLATE); “active; positive” (Test System: AMES SALMONELLA TYPHIMURIUM, Strain/Indicator: YG1021, Metabolic Activation: RAT, LIVER, S-9, AROCLOR 1254, Method: STANDARD PLATE); “active; positive” (Test System: AMES SALMONELLA TYPHIMURIUM, Strain/Indicator: YG1024, Metabolic Activation: NONE, Method: STANDARD PLATE); “active; positive” (Test System: AMES SALMONELLA TYPHIMURIUM, Strain/Indicator: YG1024, Metabolic Activation: RAT, LIVER, S-9, AROCLOR 1254, Method: STANDARD PLATE). Further, the mutagenic call reads like this: (Test System: AMES SALMONELLA TYPHIMURIUM, Strain/Indicator: YG1041, Metabolic Activation: NONE, Method: STANDARD PLATE) “active; positive”; (Test System: AMES SALMONELLA TYPHIMURIUM, Strain/Indicator: YG1041, Metabolic Activation: RAT, LIVER, S-9, AROCLOR 1254, Method: STANDARD PLATE) “active; positive”.
